Experimental data reported in patent US20060009493A1, “Indolinone hydrazides as c-Met inhibitors” (Sugen, Inc., priority 2003, published 2006).

target: T1, GST fusion protein containing the Met kinase domain (Homo sapiens, UniProt P08581); assay: MET Transphosphorylation Assay (ELISA, poly(Glu,Tyr) 4:1 substrate); type: biochemical; conditions: met transphosphorylation of poly(glutamic acid:tyrosine 4:1) substrate; two values in a cell separated by '/'
T1 construct: Purified GST fusion protein containing the Met kinase domain, Sugen, Inc
T1 sequence (P08581 1078-1345 limits assumed): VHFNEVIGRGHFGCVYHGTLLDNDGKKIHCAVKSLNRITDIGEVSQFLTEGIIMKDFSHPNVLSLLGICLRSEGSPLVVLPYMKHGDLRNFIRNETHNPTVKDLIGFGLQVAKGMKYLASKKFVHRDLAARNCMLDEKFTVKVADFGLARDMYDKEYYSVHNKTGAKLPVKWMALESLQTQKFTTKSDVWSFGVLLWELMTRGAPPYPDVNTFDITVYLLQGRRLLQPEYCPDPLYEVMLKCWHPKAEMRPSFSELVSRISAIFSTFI
Method: MET Transphosphorylation Assay
This assay is used to measure phosphotyrosine levels on a poly(glutamic acid:tyrosine (4:1)) substrate as a means for identifying agonists/antagonists of met transphosphorylation of the substrate.
• 1. […] PBS, Gibco Catalog # 450-1300EB • 4. 50 mM HEPES • 5. […] Purified GST fusion protein containing the Met kinase domain, Sugen, Inc. • 7. TBST Buffer. • 8. 10% aqueous (MilliQue H2O) DMSO. • 9. […] 2× Kinase Dilution Buffer: for 100 ml, mix 10 mL 1M HEPES at pH 7.5 with 0.4 mL 5% BSA/PBS, 0.2 mL 0.1 M sodium orthovanadate and 1 mL 5M sodium chloride in 88.4 mL dH2O. • 11. 4×ATP Reaction Mixture: for 10 mL, mix 0.4 mL 1 M manganese chloride and 0.02 mL 0.1 M ATP in […] dH2O. • 12. 4× Negative Controls Mixture: for 10 mL, mix 0.4 mL 1 M manganese chloride in 9.6 mL dH2O.
13. […] 500 mM EDTA. • 15. Antibody Dilution Buffer: for 100 mL, mix 10 mL 5% BSA/PBS, 0.5 mL 5% Carnation Instant Milk® in PBS and 0.1 mL 0.1 M sodium orthovanadate in 88.4 mL TBST. • 16. Rabbit polyclonal antophosphotyrosine antibody, Sugen, Inc. • 17. Goat anti-rabbit horseradish peroxidase conjugated antibody, Biosource, Inc. • 18. ABTS Solution: for 1 L, mix 19.21 g citric acid, 35.49 g Na2HPO4 and 500 mg ABTS with sufficient dH2O to make 1 L. • 19. ABTS/H2O2: mix 15 mL ABST solution with 2 μL H2O2 five minutes before use. • 20. 0.2 M HCl Procedure: • 1. Coat ELISA plates with 2 μg Poly(Glu-Tyr) in 100 μL PBS, store overnight at 4° C. • 2. Block plate with 150 μL of 5% BSA/PBS for 60 min. • 3. Wash plate twice with PBS, once with 50 mM Hepes buffer pH 7.4. • 4. Add 50 μl of the diluted kinase to all wells. (Purified kinase is diluted with Kinase Dilution Buffer. Final concentration should be 10 ng/well.) • 5. Add 25 μL of the test compound (in 4% DMSO) or DMSO alone (4% in dH2O) for controls to plate. • 6. Incubate the kinase/compound mixture for 15 minutes. • 7. Add 25 μL of 40 mM MnCl2 to the negative control wells. • 8. Add 25 μL ATP/MnCl2 mixture to the all other wells (except the negative controls). Incubate for 5 min. • 9. Add 25 μL 500 mM EDTA to stop reaction. • 10. Wash plate 3× with TBST. • 11. Add 100 μL rabbit polyclonal anti-Ptyr diluted 1:10,000 in Antibody Dilution Buffer to each well. Incubate, with shaking, at room temperature for one hour. • 12. Wash plate 3× with TBST. • 13. […] Add 100 μL per well and incubate at room temperature, with shaking, for one hour. • 14. Wash plate 1× with PBS. • 15. Add 100 μl of ABTS/H2O2 solution to each well. • 16. If necessary, stop the development reaction with the addition of […] of 0.2M HCl per well. • 17.

Structure (SMILES) | IC50 [µM]
O=C(Cc1ccc(O)cc1)N/N=C1\C(=O)Nc2ccc(C(=O)O)cc21 [Example I-10, (3Z)-3-{[2-(4-Hydroxy-phenyl)-acetyl]-hydrazono}-(3Z)-2-oxo-2,3-dihydro-1H-indole-5-carboxylic acid] | 0.9
O=C(Cc1ccc(O)cc1)N/N=C1\C(=O)Nc2cccc(-c3ccc(F)cc3)c21 [Example I-15, (4-Hydroxy-phenyl)-acetic acid [(3Z)-4-(4-fluoro-phenyl)-2-oxo-1,2-dihydro-indol-3-ylidene]-hydrazide] | 0.89
O=C(Cc1ccc(O)cc1)N/N=C1\C(=O)Nc2ccc(S(=O)(=O)Cc3c(Cl)cccc3Cl)cc21 [Example I-8, (4-Hydroxy-phenyl)-acetic acid [(3Z)-5-(2,6-dichloro-phenylmethanesulfonyl)-2-oxo-1,2-dihydro-indol-3-ylidene]-hydrazide] | 0.007
O=C(Cc1ccc2c(c1)OCO2)N/N=C1\C(=O)Nc2ccc(Br)cc21 [Example I-22, Benzo[1,3]dioxol-5-yl-acetic acid [(3Z)-5-bromo-2-oxo-1,2-dihydro-indol-3-ylidene]-hydrazide] | 0.25
O=C1Nc2ccccc2/C1=N/NC(=O)C(CO)c1ccccc1 (stereo not shown) [Example I-7, 3-Hydroxy-2-phenyl-propionic acid [(3Z)-2-oxo-1,2-dihydro-indol-3-ylidene]-hydrazide] | > 20
CN(C)CC#Cc1ccc2c(c1)/C(=N/NC(=O)Cc1ccc(F)cc1)C(=O)N2 [Example I-50, (4-Fluoro-phenyl)-acetic acid [(3Z)-5-(3-dimethylamino-prop-1-ynyl)-2-oxo-1,2-dihydro-indol-3-ylidene]-hydrazide] | 11.9
O=C(Cc1ccc(O)cc1)N/N=C1\C(=O)Nc2ccc(Br)c(-c3cccc(F)c3)c21 [Example I-13, (4-Hydroxy-phenyl)-acetic acid [(3Z)-5-bromo-4-(3-fluoro-phenyl)-2-oxo-1,2-dihydro-indol-3-ylidene]-hydrazide] | 1.06
O=C1Nc2ccccc2/C1=N/NC(=O)C1(c2ccccc2)CC1 [Example I-6, 1-Phenyl-cyclopropanecarboxylic acid [(3Z)-2-oxo-1,2-dihydro-indol-3-ylidene]-hydrazide] | > 20
O=C1Nc2ccccc2/C1=N/NC(=O)C(F)(F)c1ccc(F)cc1 [Example I-32, Difluoro-(4-fluoro-phenyl)-acetic acid [(3Z)-2-oxo-1,2-dihydro-indol-3-ylidene]-hydrazide] | > 20
O=C(Cc1ccc(O)cc1)N/N=C1\C(=O)Nc2cccc(-c3cccc(F)c3)c21 [Example I-14, (4-Hydroxy-phenyl)-acetic acid [(3Z)-4-(3-fluoro-phenyl)-2-oxo-1,2-dihydro-indol-3-ylidene]-hydrazide] | 0.5

Further lines, results first:

IC50 [µM] | Structure (SMILES)
3.1 | O=C(Cc1ccncc1)N/N=C1\C(=O)Nc2ccccc21 [II-21, Pyridin-4-yl-acetic acid [(3Z)-2-oxo-1,2-dihydro-indol-3-ylidene]-hydrazide]
0.42 | CC(C(=O)N/N=C1\C(=O)Nc2ccc(O)c(Cl)c21)c1ccc(F)cc1 (stereo not shown) [II-105, 2-(4-Fluoro-phenyl)-propionic acid [(3Z)-4-chloro-5-hydroxy-2-oxo-1,2-dihydro-indol-3-ylidene)-hydrazide]
0.18 | CC(C(=O)N/N=C1\C(=O)Nc2ccccc21)c1ccc(O)c(Br)c1 (stereo not shown) [II-103, 2-(3-Bromo-4-hydroxy-phenyl)-propionic acid [(3Z)-2-oxo-1,2-dihydro-indol-3-ylidene]-hydrazide]
0.2 | Cc1ccc(Cl)c2c1NC(=O)/C2=N\NC(=O)C(C)c1ccc(F)cc1 (stereo not shown) [II-114, 2-(4-Fluoro-phenyl)-propionic acid [(3Z)4-chloro-7-methyl-2-oxo-1,2-dihydro-indol-3-ylidene]-hydrazide]
0.11 | Nc1cccc(CC(=O)N/N=C2\C(=O)Nc3c(Cl)ccc(Cl)c32)c1 [II-78, (3-Amino-phenyl)-acetic acid [(3Z)-4,7-dichloro-2-oxo-1,2-dihydro-indol-3-ylidene]-hydrazide]
> 20 | O=C(Cc1ccccc1)N/N=C1\C(=O)Nc2ccccc21 [II-6, Phenyl-acetic acid [(3E)-2-oxo-1,2-dihydro-indol-3-ylidene]-hydrazide]
0.029 | O=C(Cc1ccc(O)cc1)N/N=C1\C(=O)Nc2ccc(F)cc21 [II-19, (4-Hydroxy-phenyl)-acetic acid [(3Z)-5-fluoro-2-oxo-1,2-dihydro-indol-3-ylidene]-hydrazide]
5.87 | O=C(Cc1ccc(Cl)cc1)N/N=C1\C(=O)Nc2ccccc21 [II-4, (4-Chloro-phenyl)-acetic acid [(3Z)-2-oxo-1,2-dihydro-indol-3-ylidene]-hydrazide]
0.015 | O=C(Cc1ccc(O)cc1)N/N=C1\C(=O)Nc2ccc(Cl)c(Cl)c21 [II-33, (4-Hydroxy-phenyl)-acetic acid [(3Z)-4,5-dichloro-2-oxo-1,2-dihydro-indol-3-ylidene]-hydrazide]
0.02 | O=C(Cc1ccc(F)cc1)N/N=C1\C(=O)Nc2c(Cl)ccc(Cl)c21 [II-67, (4-Fluoro-phenyl)-acetic acid [(3Z)-4,7-dichloro-2-oxo-1,2-dihydro-indol-3-ylidene)-hydrazide]
6.66 | O=C(Cc1ccccc1)N/N=C1\C(=O)Nc2ccccc21 [II-3, Phenyl-acetic acid [(3Z)-2-oxo-1,2-dihydro-indol-3-ylidene]-hydrazide]
0.037 | Cc1ccc(C)c2c1NC(=O)/C2=N\NC(=O)Cc1ccc(O)nc1 [II-50, (6-Hydroxy-pyridin-3-yl)-acetic acid [(3Z)-4,7-dimethyl-2-oxo-1,2-dihydro-indol-3-ylidene]-hydrazide]
> 20 | O=C(Cn1ccc(=O)[nH]c1=O)N/N=C1\C(=O)Nc2ccccc21 [II-71, (2,4-Dioxo-3,4-dihydro-2H-pyrimidin-1-yl)-acetic acid [(3Z)-2-oxo-1,2-dihydro-indol-3-ylidene]-hydrazide]
0.091 | Cc1ccc(C)c2c1NC(=O)/C2=N\NC(=O)Cc1ccccc1 [II-85, Phenyl-acetic acid [(3Z)-4,7-dimethyl-2-oxo-1,2-dihydro-indol-3-ylidene]-hydrazide]
> 20 | O=C(CCc1ccccc1)N/N=C1\C(=O)Nc2c(Cl)ccc(Cl)c21 [II-84, 3-Phenyl-propionic acid [(3Z)-4,7-dichloro-2-oxo-1,2-dihydro-indol-3-ylidene]-hydrazide]
> 20 | O=C(Cc1ccc(Cl)cc1)N/N=C1\C(=O)Nc2ccccc21 [II-7, (4-Chloro-phenyl)-acetic acid [(3E)-2-oxo-1,2-dihydro-indol-3-ylidene]-hydrazide]
0.013 | O=C(Cc1ccncc1)N/N=C1\C(=O)Nc2c(Cl)ccc(Cl)c21 [II-66, Pyridin-4-yl-acetic acid [(3Z)-4,7-dichloro-2-oxo-1,2-dihydro-indol-3-ylidene]-hydrazide]
0.054 | O=C(Cc1ccc(O)cc1)N/N=C1\C(=O)Nc2c(Br)cc(Cl)cc21 [II-32, (4-Hydroxy-phenyl)-acetic acid [(3Z)-7-bromo-5-chloro-2-oxo-1,2-dihydro-indol-3-ylidene]-hydrazide]
0.021 | COc1ccc2c(c1Cl)/C(=N/NC(=O)Cc1ccc(O)cc1)C(=O)N2 [II-94, (4-Hydroxy-phenyl)-acetic acid [(3Z)-4-chloro-5-methoxy-2-oxo-1,2-dihydro-indol-3-ylidene]-hydrazide]
> 20 | O=C(CCc1ccc(O)cc1)N/N=C1\C(=O)Nc2ccccc21 [II-24, 3-(4-Hydroxy-phenyl)-propionic acid [(3E)-2-oxo-1,2-dihydro-indol-3-ylidene]-hydrazide]
> 20 | O=C(Cc1cc(=O)[nH]c(=O)[nH]1)N/N=C1\C(=O)Nc2ccccc21 [II-80, (2,6-Dioxo-1,2,3,6-tetrahydro-pyrimidin-4-yl)-acetic acid [(3Z)-2-oxo-1,2-dihydro-indol-3-ylidene)-hydrazide]
